Literature values as cited in PMC13566764 (International Journal of Molecular Sciences, 2026).

Design: method as in https://pubchem.ncbi.nlm.nih.gov
Conditions: ref https://pubchem.ncbi.nlm.nih.gov

- pKa: 8.33
SMILES: O=C1NC(=O)C(c2ccccc2)(c2ccccc2)N1 [Phenytoin, phenytoin]
